# Measured values as given in patent publication US20240166663A1, “NOVEL PYRIMIDINE DERIVATIVE SHOWING INHIBITION EFFECT ON GROWTH OF CANCER CELLS” (ONCOBIX CO., LTD., priority 2021, published 2024).
# Molecular target: EXON 20 Insertion(NPG) Ba/F3 Cell (Homo sapiens, UniProt P00533, INS772GNP, cells depend on it)
# Test: Measurement of cancer cell growth inhibitory effect (MTT assay)
# Type: cell-based, Murine
# Settings: Ba/F3 cells expressing EGFR with NPG added at D770_N771, 72 hours treatment, read at 595 nm, read-out: EXON 20 Insertion(NPG) Ba/F3 Cell(IC50)
# Description: Since there is no commercially available lung cancer cell line with EGFR insertion mutation, a method of inserting 3 to 4 amino acids at each site using site direct mutagenesis in a wild type EGFR expression vector was attempted. In the present invention, first, a vector with three amino acids of NPG added to the D770_N771 site with the highest frequency was used, and Ba/F3 cell line was used for expression of these genes.
# When the oncogenic mutant EGFR is expressed, dependence on the mutant EGFR for cell growth and apoptosis occurs without IL-3. Therefore, substances that show effective inhibition of mutant EGFR suppress cell growth and induce apoptosis, so the anticancer effect of cells was analyzed through MTT assay.
# 1×10^4 cells of the previously constructed stable cells were put into a 96 well plate and incubated overnight, and then the compound of Example was dose dependently treated. After 72 hours, MTT reagent was added, and after 3 hours stop buffer (10% SDS) was added. After 24 hours of incubation, the results were analyzed by reading at 595 nm. […] As a control drug, Mobocertinib was used.
# Sequence of EXON 20 Insertion(NPG) Ba/F3 Cell (P00533 with tags, fused parts or gaps INS772GNP): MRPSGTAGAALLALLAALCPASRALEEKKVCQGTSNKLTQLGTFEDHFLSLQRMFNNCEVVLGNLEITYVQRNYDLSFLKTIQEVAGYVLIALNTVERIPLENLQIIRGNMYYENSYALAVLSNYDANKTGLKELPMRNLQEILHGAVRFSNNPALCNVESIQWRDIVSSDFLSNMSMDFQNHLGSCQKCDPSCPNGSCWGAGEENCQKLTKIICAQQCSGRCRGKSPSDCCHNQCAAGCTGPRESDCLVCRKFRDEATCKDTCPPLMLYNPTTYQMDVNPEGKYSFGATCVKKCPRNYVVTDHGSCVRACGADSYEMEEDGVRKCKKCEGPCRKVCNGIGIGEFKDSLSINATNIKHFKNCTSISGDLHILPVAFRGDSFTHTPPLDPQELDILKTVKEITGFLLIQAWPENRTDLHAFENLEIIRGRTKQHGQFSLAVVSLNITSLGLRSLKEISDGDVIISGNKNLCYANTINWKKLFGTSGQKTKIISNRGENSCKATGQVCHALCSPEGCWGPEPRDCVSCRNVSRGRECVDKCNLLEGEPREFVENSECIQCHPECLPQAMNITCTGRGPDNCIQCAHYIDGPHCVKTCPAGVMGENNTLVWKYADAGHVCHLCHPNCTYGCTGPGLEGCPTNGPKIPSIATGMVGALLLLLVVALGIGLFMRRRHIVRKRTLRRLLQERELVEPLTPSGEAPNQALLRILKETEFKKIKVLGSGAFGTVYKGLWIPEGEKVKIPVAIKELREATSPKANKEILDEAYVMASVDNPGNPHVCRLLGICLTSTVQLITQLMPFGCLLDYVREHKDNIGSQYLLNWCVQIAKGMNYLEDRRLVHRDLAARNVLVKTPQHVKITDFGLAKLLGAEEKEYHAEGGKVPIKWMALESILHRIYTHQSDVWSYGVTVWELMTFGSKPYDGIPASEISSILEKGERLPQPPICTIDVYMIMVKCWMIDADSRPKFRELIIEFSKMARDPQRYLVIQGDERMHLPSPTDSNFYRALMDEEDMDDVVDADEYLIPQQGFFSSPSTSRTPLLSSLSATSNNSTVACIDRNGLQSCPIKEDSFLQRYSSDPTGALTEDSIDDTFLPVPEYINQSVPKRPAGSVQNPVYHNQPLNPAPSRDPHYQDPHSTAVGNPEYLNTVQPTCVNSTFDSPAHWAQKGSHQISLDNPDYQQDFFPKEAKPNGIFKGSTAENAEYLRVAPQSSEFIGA
row,Structure (SMILES),GI50 [µM]
1,"C=CC(=O)Nc1cc(Nc2ncc(C(=O)OCC)c(Nc3ccccc3-n3cccn3)n2)c(OC)cc1N(C)CCN(C)C [Example 21, ethyl 4-((2-(1H-pyrazol-1-yl)phenyl)amino)-2-((5-acrylamido-4-((2-(dimethylamino)ethyl)(methyl)amino)-2-methoxyphenyl)amino)pyrimidin-5-carboxylate]",0.025 to 0.05
2,"C=CC(=O)Nc1cc(Nc2ncc(C(=O)OC(C)C)c(Nc3ccccc3-c3ccn(C)n3)n2)c(OC)cc1N1CCN(C)CC1 [Example 23, Isopropyl 2-((5-acrylamido-2-methoxy-4-(4-methylpiperizin-l-yl)phenyl)amino)-4-((2-(1-methyl-1H-pyrazol-3-yl)phenyl)amino)pyrimidin-5-carboxylate]",0.025 to 0.05
3,"C=CC(=O)Nc1cc(Nc2ncc(C(=O)OC(C)C)c(Nc3ccccc3-c3ccn(C)n3)n2)c(OC)cc1N1CC[C@H](N(C)C)C1 [Example 25, Isopropyl(S)-2-((5-acrylamido-4-(3-(dimethylamino)pyrrolidin-1-yl)-2-methoxyphenyl)amino)-4-((2-(1-methyl-1H-pyrazol-3-yl)phenyl)amino)pyrimidin-5-carboxylate]",0.025 to 0.05
4,"C=CC(=O)Nc1cc(Nc2ncc(C(=O)OC(C)C)c(Nc3ccccc3-c3ccn(C)n3)n2)c(OC)cc1N(C)[C@@H]1CCN(C)C1 [Example 27, Isopropyl(R)-2-((5-acrylamido-2-methoxy-4-(methyl(1-methylpyrrolidin-3-yl)amino)phenyl)amino)-4-((2-(1-methyl-1H-pyrazol-3-yl)phenyl)amino)pyrimidin-5-carboxylate]",0.025 to 0.05
5,"C=CC(=O)Nc1cc(Nc2ncc(C(=O)OC(C)C)c(Nc3ccccc3-c3ccn(C)n3)n2)c(OC)cc1N(C)[C@H]1CCN(C)C1 [Example 28, Isopropyl(S)-2-((5-acrylamido-2-methoxy-4-(methyl(1-methylpyrrolidin-3-yl)amino)phenyl)amino)-4-((2-(1-methyl-1H-pyrazol-3-yl)phenyl)amino)pyrimidin-5-carboxylate]",0.025 to 0.05
6,"C=CC(=O)Nc1cc(Nc2ncc(Cl)c(Nc3ccccc3-c3ccn(C)n3)n2)c(OC)cc1N(C)CCN(C)C [Example 29, N-(5-((5-chloro-4-((2-(1-methyl-1H-pyrazol-3-yl)phenyl)amino)pyrimidin-2-yl)amino)-2-((2-(dimethylamino)ethyl)(methyl)amino)-4-methoxyphenyl)acrylamide]",< 0.025
7,"C=CC(=O)Nc1cc(Nc2ncc(Cl)c(Nc3ccccc3-c3ccn(C)n3)n2)c(OC)cc1N1CC[C@H](N(C)C)C1 [Example 33, (S)-N-(5-((5-chloro-4-((2-(1-methyl-1H-pyrazol-3-yl)phenyl)amino)pyrimidin-2-yl)amino)-2-(3-(dimethylamino)pyrrolidin-1-yl)-4-methoxyphenyl)acrylamide]",0.025 to 0.05
8,"C=CC(=O)Nc1cc(Nc2ncc(Cl)c(Nc3ccccc3-c3ccn(C)n3)n2)c(OC)cc1N(C)[C@@H]1CCN(C)C1 [Example 35, (R)-N-(5-((5-chloro-4-((2-(1-methyl-1H-pyrazol-3-yl)phenyl)amino)pyrimidin-2-yl)amino)-4-methoxy-2-(methyl(1-methylpyrrolidin-3-yl)amino)phenyl)acrylamide]",0.025 to 0.05
9,"C=CC(=O)Nc1cc(Nc2ncc(Cl)c(Nc3ccccc3-c3ccn(C)n3)n2)c(OC)cc1N(C)[C@H]1CCN(C)C1 [Example 36, (S)-N-(5-((5-chloro-4-((2-(1-methyl-1H-pyrazol-3-yl)phenyl)amino)pyrimidin-2-yl)amino)-4-methoxy-2-(methyl(1-methylpyrrolidin-3-yl)amino)phenyl)acrylamide]",0.025 to 0.05
10,"C=CC(=O)Nc1cc(Nc2cc(Nc3ccccc3-n3cccn3)ncn2)c(OC)cc1N(C)CCN(CC)CC [Example 37, N-(5-((6-((2-(1H-pyrazol-1-yl)phenyl)amino)pyrimidin-4-yl)amino)-2-((2-(diethylamino)ethyl)(methyl)amino)-4-methoxyphenyl)acrylamide]",0.025 to 0.05
11,"C=CC(=O)Nc1cc(Nc2cc(Nc3ccccc3-n3cccn3)ncn2)c(OC)cc1N1C2CCC1COC2 [Example 39, N-(5-((6-((2-(1H-pyrazol-1-yl)phenyl)amino)pyrimidin-4-yl)amino)-2-(3-oxa-8-azabicyclo[3.2.1]octan-8-yl)-4-methoxyphenyl)acrylamide]",0.025 to 0.05
12,"C=CC(=O)Nc1cc(Nc2ncc(C(=O)OC(C)C)c(-c3cn(C)c4ccccc34)n2)c(OC)cc1N(C)CCN(C)C [Mobocertinib, reference compound]",0.05 to 0.5

# Other lines, results leading:
row,GI50 [µM],Structure (SMILES)
1,0.025 to 0.05,"C=CC(=O)Nc1cc(Nc2ncc(C(=O)OC3CC3)c(Nc3ccccc3-c3ccn(C)n3)n2)c(OC)cc1N(C)CCN(C)C [Example 22, cyclopropyl 2-((5-acrylamido-4-((2-(dimethylamino)ethyl)(methyl)amino)-2-methoxyphenyl)amino)-4-((2-(1-methyl-1H-pyrazol-3-yl)phenyl)amino)pyrimidin-5-carboxylate]"
2,0.025 to 0.05,"C=CC(=O)Nc1cc(Nc2ncc(C(=O)OC(C)C)c(Nc3ccccc3-c3ccn(C)n3)n2)c(OC)cc1N1CCOCC1 [Example 24, Isopropyl 2-((5-acrylamido-2-methoxy-4-morpholinophenyl)amino)-4-((2-(1-methyl-1H-pyrazol-3-yl)phenyl)amino)pyrimidin-5-carboxylate]"
3,0.025 to 0.05,"C=CC(=O)Nc1cc(Nc2ncc(C(=O)OC(C)C)c(Nc3ccccc3-c3ccn(C)n3)n2)c(OC)cc1N1CC[C@@H](N(C)C)C1 [Example 26, Isopropyl(R)-2-((5-acrylamido-4-(3-(dimethylamino)pyrrolidin-1-yl)-2-methoxyphenyl)amino)-4-((2-(1-methyl-1H-pyrazol-3-yl)phenyl)amino)pyrimidin-5-carboxylate]"
4,< 0.025,"C=CC(=O)Nc1cc(Nc2ncc(Cl)c(Nc3ccccc3-n3cccn3)n2)c(OC)cc1N(C)CCN(C)C [Example 30, N-(5-((4-((2-(1H-pyrazol-1-yl)phenyl)amino)-5-chloropyrimidin-2-yl)amino)-2-((2-(dimethylamino)ethyl)(methyl)amino)-4-methoxyphenyl)acrylamide]"
5,0.025 to 0.05,"C=CC(=O)Nc1cc(Nc2ncc(Cl)c(Nc3ccccc3-c3ccn(C)n3)n2)c(OC)cc1N1CCN(C)CC1 [Example 31, N-(5-((5-chloro-4-((2-(1-methyl-1H-pyrazol-3-yl)phenyl)amino)pyrimidin-2-yl)amino)-4-methoxy-2-(4-methylpiperizin-1-yl)phenyl)acrylamide]"
6,0.025 to 0.05,"C=CC(=O)Nc1cc(Nc2ncc(Cl)c(Nc3ccccc3-c3ccn(C)n3)n2)c(OC)cc1N1CCOCC1 [Example 32, N-(5-((5-chloro-4-((2-(1-methyl-1H-pyrazol-3-yl)phenyl)amino)pyrimidin-2-yl)amino)-4-methoxy-2-morpholinophenyl)acrylamide]"
7,0.025 to 0.05,"C=CC(=O)Nc1cc(Nc2ncc(Cl)c(Nc3ccccc3-c3ccn(C)n3)n2)c(OC)cc1N1CC[C@@H](N(C)C)C1 [Example 34, (R)-N-(5-((5-chloro-4-((2-(1-methyl-1H-pyrazol-3-yl)phenyl)amino)pyrimidin-2-yl)amino)-2-(3-(dimethylamino)pyrrolidin-1-yl)-4-methoxyphenyl)acrylamide]"
8,0.025 to 0.05,"C=CC(=O)Nc1cc(Nc2cc(Nc3ccccc3-n3cccn3)ncn2)c(OC)cc1N1CC2COCC2C1 (centres unmarked) [Example 38, N-(5-((6-((2-(1H-pyrazol-1-yl)phenyl)amino)pyrimidin-4-yl)amino)-4-methoxy-2-(tetrahydro-1H-furo[3,4-c]pyrrol-5 (3H)-yl)phenyl)acrylamide]"
